The source made the active and inactive calls. The calls are words filed in the database; no cut-off is given here. Square brackets hold non-standard residues; d marks the D form. Peptide text beside a SMILES is read from it. ξ: configuration not given here. ξpS = NC(COP(=O)(O)O)C(=O)O
Tests used:
[1] = target: T1, Caspase-3 (Homo sapiens) (UniProt P42574); experiment: Substrate activity at recombinant human caspase-3 assessed as enzyme-mediated compound cleavage after 1 hr by RP-HPLC analysis
T1 sequence (whole entry): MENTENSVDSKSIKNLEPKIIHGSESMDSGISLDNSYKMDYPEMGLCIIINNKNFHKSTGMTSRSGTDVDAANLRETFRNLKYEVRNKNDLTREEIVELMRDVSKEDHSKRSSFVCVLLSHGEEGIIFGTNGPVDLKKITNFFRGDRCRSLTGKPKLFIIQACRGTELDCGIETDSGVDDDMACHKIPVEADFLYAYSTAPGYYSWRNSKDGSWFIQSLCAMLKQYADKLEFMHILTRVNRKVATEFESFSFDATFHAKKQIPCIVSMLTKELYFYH

[2] = target: T1, Caspase-3 (Homo sapiens); experiment: Inhibition of recombinant human caspase-3 at 50 uM using fluorogenic peptide substrate Ac-DEVD-MCA after 30 mins incubation by spectrofluorometric method
[3] = Retention time of the compound by mass spectrometric analysis; format: physicochemical
[4] = target: T1, Caspase-3 (Homo sapiens); experiment: Substrate activity at recombinant human caspase-3 assessed as Ac-STGSIDMVD-OH formation after 1 hr by RP-HPLC analysis
[5] = target: T1, Caspase-3 (Homo sapiens); experiment: Substrate activity at recombinant human caspase-3 assessed as Ac-STGSIDMVD-OH formation after 1 hr by MALDI-TOF/MS analysis
[6] = target: T1, Caspase-3 (Homo sapiens); experiment: Substrate activity at recombinant human caspase-3 assessed as SPQL-CONH2 formation after 1 hr by RP-HPLC analysis
[7] = target: T1, Caspase-3 (Homo sapiens); experiment: Substrate activity at recombinant human caspase-3 assessed as SPQLAT-CONH2 formation after 1 hr by RP-HPLC analysis
[8] = target: T1, Caspase-3 (Homo sapiens); experiment: Substrate activity at recombinant human caspase-3 assessed as SPQLAT-CONH2 formation after 1 hr by MALDI-TOF/MS analysis
[9] = target: T1, Caspase-3 (Homo sapiens); experiment: Substrate activity at recombinant human caspase-3 assessed as SIDMVD formation after 1 hr by RP-HPLC analysis
[10] = target: T1, Caspase-3 (Homo sapiens); experiment: Substrate activity at recombinant human caspase-3 assessed as SIDMVD formation after 1 hr by MALDI-TOF/MS analysis
[11] = target: T1, Caspase-3 (Homo sapiens); experiment: Substrate activity at 3-fold excess recombinant human caspase-3 assessed as SIDMVD formation by RP-HPLC analysis; conditions: TDE = time-dependent effect
[12] = target: T1, Caspase-3 (Homo sapiens); experiment: Substrate activity at 3-fold excess recombinant human caspase-3 assessed as SPQLAT formation by RP-HPLC analysis; conditions: TDE = time-dependent effect
[13] = target: T1, Caspase-3 (Homo sapiens); experiment: Substrate activity at recombinant human caspase-3 assessed as enzyme-mediated compound cleavage after 1 hr in presence of casapase-3 inhibitor Ac-DQVD-aldehyde by RP-HPLC analysis

Structure (SMILES)	Activity [1]	Retention_time [3] [min]	also measured
CC[C@H](C)[C@H](NC(=O)[C@H](CO)NC(=O)CNC(=O)[C@@H](NC(=O)[C@H](CO)NC(C)=O)[C@@H](C)O)C(=O)N[C@@H](CC(=O)O)C(=O)N[C@@H](CCSC)C(=O)N[C@H](C(=O)N[C@@H](CC(=O)O)C(=O)N[C@H](CO)C(=O)N1CCC[C@H]1C(=O)N[C@@H](CCC(N)=O)C(=O)N[C@@H](CC(C)C)C(=O)N[C@@H](C)C(N)=O)C(C)C	Active	–	–
CC[C@H](C)[C@H](NC(=O)[C@H](CO)NC(=O)CNC(=O)[C@@H](NC(=O)[C@H](CO)NC(C)=O)[C@@H](C)O)C(=O)N[C@@H](CC(=O)O)C(=O)N[C@@H](CCSC)C(=O)N[C@H](C(=O)N[C@H](CC(=O)O)C(=O)N[C@@H](CO)C(=O)N1CCC[C@H]1C(=O)N[C@@H](CCC(N)=O)C(=O)N[C@@H](CC(C)C)C(=O)N[C@@H](C)C(N)=O)C(C)C	inactive	–	–
CC(=O)N[C@@H](CC(=O)O)C(=O)N[C@@H](CCC(N)=O)C(=O)N[C@H](C(=O)N[C@H](C=O)CC(=O)O)C(C)C (Ac-DQVD-aldehyde)	–	–	inhibition [2]: 97.3%
CC[C@H](C)[C@H](NC(=O)[C@H](CO)NC(=O)CNC(=O)[C@@H](NC(=O)[C@H](CO)NC(C)=O)[C@@H](C)O)C(=O)N[C@@H](CC(=O)O)C(=O)N[C@@H](CCSC)C(=O)N[C@H](C(=O)N[C@@H](CC(=O)O)C(=O)N[C@@H](CO)C(=O)N1CCC[C@H]1C(=O)N[C@@H](CCC(N)=O)C(=O)N[C@@H](CC(C)C)C(N)=O)C(C)C (Ac-STGSIDMVDSPQL-NH2)	–	31.8	Activity [4]: Active; Activity [5]: Active; Activity [6]: Active
CC[C@H](C)[C@H](NC(=O)[C@H](CO)NC(=O)CNC(=O)[C@@H](NC(=O)[C@H](CO)NC(C)=O)[C@@H](C)O)C(=O)N[C@@H](CC(=O)O)C(=O)N[C@@H](CCSC)C(=O)N[C@H](C(=O)N[C@@H](CC(=O)O)C(=O)NC(COP(=O)(O)O)C(=O)N1CCC[C@H]1C(=O)N[C@@H](CCC(N)=O)C(=O)N[C@@H](CC(C)C)C(=O)N[C@@H](C)C(N)=O)C(C)C (some centres not stated) (Ac-STGSIDMVD[ξpS]PQLA-NH2)	inactive	–	–
CC[C@H](C)[C@H](NC(=O)[C@@H](N)CO)C(=O)N[C@@H](CC(=O)O)C(=O)N[C@@H](CCSC)C(=O)N[C@H](C(=O)N[C@@H](CC(=O)O)C(=O)N[C@@H](CO)C(=O)N1CCC[C@H]1C(=O)N[C@@H](CCC(N)=O)C(=O)N[C@@H](CC(C)C)C(=O)N[C@@H](C)C(=O)N[C@H](C(N)=O)[C@@H](C)O)C(C)C (H-SIDMVDSPQLAT-NH2)	–	27.9	Activity [7]: Active; Activity [8]: Active; Activity [9]: Active; Activity [10]: Active; Activity [11]: Tde; Activity [12]: Tde; Activity [13]: inactive
CC[C@H](C)[C@H](NC(=O)[C@@H](N)CO)C(=O)N[C@@H](CC(=O)O)C(=O)N[C@@H](CCSC)C(=O)N[C@H](C(=O)N[C@@H](CC(=O)O)C(=O)NC(COP(=O)(O)O)C(=O)N1CCC[C@H]1C(=O)N[C@@H](CCC(N)=O)C(=O)N[C@@H](CC(C)C)C(=O)N[C@@H](C)C(=O)N[C@H](C(N)=O)[C@@H](C)O)C(C)C (some centres not stated) (H-SIDMVD[ξpS]PQLAT-NH2)	inactive	26.3	–

Second part, led by results:

Activity [1]	Retention_time [3] [min]	Structure (SMILES)	also measured
–	30.6	CC[C@H](C)[C@H](NC(=O)[C@H](CO)NC(=O)CNC(=O)[C@@H](NC(=O)[C@H](CO)NC(C)=O)[C@@H](C)O)C(=O)N[C@@H](CC(=O)O)C(=O)N[C@@H](CCSC)C(=O)N[C@H](C(=O)N[C@@H](CC(=O)O)C(=O)O)C(C)C (Ac-STGSIDMVD-OH)	–
–	18.1	CC[C@H](C)[C@H](NC(=O)[C@@H](N)CO)C(=O)N[C@@H](CC(=O)O)C(=O)N[C@@H](CCSC)C(=O)N[C@H](C(=O)N[C@@H](CC(=O)O)C(=O)O)C(C)C (H-SIDMVD-OH)	–
–	19.5	CC(C)C[C@H](NC(=O)[C@H](CCC(N)=O)NC(=O)[C@@H]1CCCN1C(=O)[C@@H](N)CO)C(N)=O (H-SPQL-NH2)	–
–	25.7	CC(C)C[C@H](NC(=O)[C@H](CCC(N)=O)NC(=O)[C@@H]1CCCN1C(=O)[C@@H](N)CO)C(=O)N[C@@H](C)C(=O)N[C@H](C(N)=O)[C@@H](C)O (H-SPQLAT-NH2)	–
